According to ChEMBL document CHEMBL1201862, “PubChem BioAssay data set” (2004):
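Step 1: Grow cells in 96-well plates. Step 2: Expose to compound for 48 hours at 5 concentrations. Step 3: Interpolate endpoints linearly; if unreached, use highest concentration. At the GI50, growth is halved.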 Activity calls are given as the source filed them. No stated cut-off is given here; in the data, active = GI50 up to about 1.1 µM and inactive = higher.

Tests used:
Test in all cases: DTP human tumour cell line panel, 48 h
[1] = tested on: HOP-92
[2] = tested on: NCI-H460
[3] = tested on: UO-31
[4] = tested on: OVCAR-3
[5] = tested on: ACHN
[6] = tested on: LOX IMVI
[7] = tested on: SN12C
[8] = tested on: TK-10
[9] = tested on: LXFL 529
[10] = tested on: OVCAR-8
[11] = tested on: SNB-75
[12] = tested on: SF-268
[13] = tested on: SK-MEL-5
[14] = tested on: A498
[15] = tested on: UACC-62
[16] = tested on: SK-MEL-28
[17] = tested on: Hs-578T
[18] = tested on: MDA-N
[19] = tested on: PC-3
[20] = tested on: DU-145

Measured: GI50

CN(Cc1ccccc1)C(=O)c1ccccc1C(=O)O
inactive: [1] > 100 µM | [2] > 100 µM | [3] > 100 µM | [4] > 100 µM | [5] > 100 µM | [6] > 100 µM | [7] > 100 µM | [8] > 100 µM | [9] > 100 µM | [10] > 100 µM | [11] > 100 µM | [12] > 100 µM

O=C1/C=C(/c2ccc(O)cc2)[C@@H](O)Cc2ccc(O)cc2O1
inactive: [2] 62.4 µM | [3] 85.3 µM | [13] > 100 µM | [4] > 100 µM | [14] 2.25 µM | [5] 92.7 µM | [6] 92.3 µM | [7] 85.9 µM | [8] > 100 µM | [9] 63.7 µM | [10] > 100 µM | [15] 31 µM | [12] 45.1 µM

COc1ccc2oc3c(OC)c(OC)c(OC)cc3c(=O)c2c1
inactive: [2] > 100 µM | [3] > 100 µM | [13] > 100 µM | [14] > 100 µM | [5] > 100 µM | [16] > 100 µM | [6] > 100 µM | [7] > 100 µM | [8] > 100 µM | [9] > 100 µM | [10] > 100 µM | [15] > 100 µM | [11] 24.7 µM | [12] > 100 µM

Cc1cc(N(CCC#N)CCC#N)ccc1/C=C(\NC(=O)/C=C/c1ccccc1)NC(=O)Nc1ccc(Cl)cc1
active: [9] 0.652 µM
inactive: [1] 39.4 µM | [2] > 100 µM | [3] 74.1 µM | [13] 3.83 µM | [4] 80.5 µM | [14] > 100 µM | [5] 7.28 µM | [16] > 100 µM | [6] 1.83 µM | [7] > 100 µM | [10] 80 µM | [15] 8.83 µM | [12] 62.2 µM

N/N=C1\C(=O)N(C2CCCCCC2)C(=O)C1C(=O)NC1CCCCCC1 (centres undefined)
inactive: [1] 21.3 µM | [2] 42.7 µM | [3] 20.3 µM | [13] 17.1 µM | [4] 32.4 µM | [14] 38 µM | [5] 42.2 µM | [16] > 10 µM | [7] 27.9 µM | [8] > 10 µM | [9] 22.8 µM | [10] 39.3 µM | [15] 18.8 µM | [12] 36.9 µM

C/C(CN1C(=O)c2ccccc2C1=O)=N\NS(=O)(=O)c1ccc(C)cc1
inactive: [2] > 100 µM | [3] > 100 µM | [13] > 100 µM | [4] > 100 µM | [14] > 100 µM | [5] > 100 µM | [7] > 100 µM | [8] > 100 µM | [9] > 100 µM | [10] > 100 µM | [15] > 100 µM | [11] > 100 µM

COC(=O)[C@@H]1c2[nH]c3ccccc3c2C[C@@H]2c3ccccc3NC(=O)[C@@H]21
inactive: [2] > 100 µM | [3] > 100 µM | [13] > 54 µM | [4] > 53.6 µM | [14] > 100 µM | [5] > 100 µM | [16] > 91 µM | [6] 31 µM | [7] > 78.3 µM | [8] > 80.4 µM | [9] > 65.2 µM | [10] 21.3 µM | [15] > 75.7 µM | [11] 12.7 µM | [12] > 31.6 µM

C=C1CC(c2ccc(OCCCN3C(=O)c4ccccc4C3=O)c(OC)c2)OC1=O (centres undefined)
inactive: [1] 1.62 µM | [2] 2.62 µM | [3] 3.69 µM | [13] 11.1 µM | [17] 6.17 µM | [4] 2.21 µM | [14] 1.77 µM | [18] 3.44 µM | [19] 12.4 µM | [5] 6.25 µM | [16] 2.21 µM | [6] 1.74 µM | [7] 6.82 µM | [8] 2.39 µM | [20] 11.9 µM | [10] 2.93 µM | [15] 2.07 µM | [12] 8.09 µM
active: [11] 0.382 µM

CCOC(=O)C(C)(c1cn(C)c2ccccc12)c1cn(C)c2ccccc12
inactive: [2] > 100 µM | [3] > 100 µM | [13] > 100 µM | [4] 45.8 µM | [14] > 100 µM | [5] 77.1 µM | [16] > 100 µM | [8] 83.9 µM | [9] > 100 µM | [10] 52.2 µM | [15] 87.9 µM | [11] 19 µM

Cc1cc2c(=O)cc(-c3ccc(Cl)c(Cl)c3)oc2c(C(=O)O)c1C
inactive: [2] > 100 µM | [3] > 100 µM | [13] > 100 µM | [4] > 100 µM | [5] > 100 µM | [16] > 100 µM | [6] > 100 µM | [7] > 100 µM | [8] > 100 µM | [9] > 100 µM | [10] > 100 µM | [15] > 100 µM | [11] 92.3 µM | [12] > 100 µM
